How the values were obtained:
[1] = system: Ehrlich; test: Antitumor activity against mouse Ehrlich ascites carcinoma cells allografted in mouse assessed as host survival time at 100 mg/kg administered qd for 6 days beginning 24 hrs after tumor implantation relative to control; format: functional
[2] = system: P388; test: Antitumor activity against mouse P388 cells allografted in mouse assessed as host survival time at 100 mg/kg administered qd for 9 days beginning 24 hrs after tumor implantation relative to control; format: functional
[3] = system: Ehrlich; test: Antitumor activity against mouse Ehrlich ascites carcinoma cells allografted in mouse assessed as host survival time at 40 mg/kg administered qd for 6 days beginning 24 hrs after tumor implantation relative to control in presence of 8 mg/kg CuCl2; format: functional
[4] = system: P388; test: Antitumor activity against mouse P388 cells allografted in mouse assessed as host survival time at 40 mg/kg administered qd for 9 days beginning 24 hrs after tumor implantation relative to control in presence of 8 mg/kg CuCl2; format: functional
[5] = Metal chelating activity of the compound assessed as Fe2+-complex formation by absorbance analysis; format: physicochemical
[6] = Metal chelating activity of the compound assessed as Co2+-complex formation by absorbance analysis; format: physicochemical
[7] = Metal chelating activity of the compound assessed as cupric ion complex formation by absorbance analysis; format: physicochemical
[8] = system: P388; test: Antitumor activity against mouse P388 cells allografted in mouse assessed as host survival time at 50 mg/kg administered qd for 9 days beginning 24 hrs after tumor implantation relative to control in presence of 8 mg/kg CuCl2; format: functional
[9] = system: Sarcoma-180; test: Antitumor activity against mouse Sarcoma 180 cells allografted in mouse assessed as host survival time at 100 mg/kg administered qd for 6 days beginning 24 hrs after tumor implantation relative to control; format: functional
[10] = system: Sarcoma-180; test: Antitumor activity against mouse Sarcoma 180 cells allografted in mouse assessed as host survival time at 40 mg/kg administered qd for 6 days beginning 24 hrs after tumor implantation relative to control in presence of 8 mg/kg CuCl2; format: functional
[11] = system: Ehrlich; test: Antitumor activity against mouse Ehrlich ascites carcinoma cells allografted in mouse assessed as host survival time at 50 mg/kg administered qd for 6 days beginning 24 hrs after tumor implantation relative to control in presence of 8 mg/kg CuCl2; format: functional
[12] = system: Sarcoma-180; test: Antitumor activity against mouse Sarcoma 180 cells allografted in mouse assessed as host survival time at 50 mg/kg administered qd for 6 days beginning 24 hrs after tumor implantation relative to control in presence of 8 mg/kg CuCl2; format: functional
[13] = Octanol-water partition coefficient, log P of the compound; format: physicochemical
[14] = Metal chelating activity of the compound assessed as cupric ion complex formation at drug:cupric chloride ratio of 1:1 by absorbance analysis; format: physicochemical
[15] = Metal chelating activity of the compound assessed as cupric ion complex formation at drug:cupric chloride ratio of 2:1 by absorbance analysis; format: physicochemical

Row | Compound | T/C [1] | T/C [2] | T/C [3] | T/C [4] | Activity [5] | Activity [6] | Activity [7] | T/C [8] | T/C [9] | T/C [10] | T/C [11] | T/C [12] | logP [13] | Activity [14] | Activity [15]
1 | CCOP(=O)(N/N=C/c1cccc[n+]1[O-])OCC | 160% | 108% | 98% | 78% | Not Active | Not Active | Not Active |  |  |  |  |  |  |  | 
2 | O=P(N/N=C/c1cccc[n+]1[O-])(Oc1ccccc1)Oc1ccccc1 |  | 111% |  |  |  |  |  | 95% |  |  |  |  |  |  | 
3 | CCOP(=S)(N/N=C/c1cccc[n+]1[O-])OCC | 108% | 111% | 135% | 73% | Not Active | Not Active |  |  | 96% | 126% |  |  |  |  | 
4 | [O-][n+]1ccccc1/C=N/NP(=S)(N/N=C/c1cccc[n+]1[O-])c1ccccc1 | 104% | 114% |  |  | Not Active | Not Active |  | 87% | 79% |  | 204% | 106% |  |  | 
5 | [O-][n+]1ccccc1 |  |  |  |  |  |  |  |  |  |  |  |  | -1.69 |  | 
6 | S=P(N/N=C/c1ccccn1)(N/N=C/c1ccccn1)Oc1ccccc1 | 114% | 87% | 269% | 97% |  |  |  |  | 93% | 141% |  |  | 1.62 |  | 
7 | O.O=P(O)(N/N=C/c1ccccn1)Oc1ccccc1 | 115% | 103% | 163% | 99% | Not Active | Active |  |  | 95% | 79% |  |  |  | Active | 
8 | O=P1(N(CCCl)CCCl)NCCCO1 (centres undefined) [CYCLOPHOSPHAMIDE ANHYDROUS] |  |  |  |  |  |  |  |  |  |  |  |  | 0.63 |  | 
9 | [O-][n+]1ccccc1/C=N/NP(=S)(N/N=C/c1cccc[n+]1[O-])Oc1ccccc1 | 123% | 103% | 166% | 89% | Not Active | Not Active |  |  | 89% | 85% |  |  | 1.28 |  | 
10 | [O-][n+]1ccccc1/C=N/NP(=S)(Oc1ccccc1)Oc1ccccc1 | 144% | 113% | 204% | 94% | Not Active | Not Active |  |  | 93% | 106% |  |  |  |  | 
11 | O=P(N/N=C/c1ccccn1)(Oc1ccccc1)Oc1ccccc1 |  | 117% |  | 92% |  |  |  |  |  |  |  |  |  |  | Active
12 | S=P(N/N=C/c1ccccn1)(N/N=C/c1ccccn1)c1ccccc1 | 190% | 108% |  |  |  |  |  | 95% | 81% |  | 150% | 87% |  |  | 
13 | S=P(N/N=C/c1ccccn1)(Oc1ccccc1)Oc1ccccc1 |  | 102% |  | 94% |  |  |  |  |  |  |  |  |  |  | 
14 | O.O=P(O)(N/N=C/c1cccc[n+]1[O-])Oc1ccccc1 | 118% |  | 164% |  | Not Active | Active |  |  | 107% | 87% |  |  | -0.76 |  | Active

Reference: ChEMBL document CHEMBL3272203, “Phosphorus-nitrogen compounds. 22. Synthesis and antitumor activity of arylsulfonylhydrazone analogues” (J Med Chem, 1978)
